# Results from PubChem BioAssay (NCI).
#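 GI50: concentration for 50% inhibition of growth. TGI denotes the concentration required for complete inhibition of growth.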
# Key:
# Assay in all cases: NCI-60 cell line screen, 384-well format
# [1] = test system: PC-3 prostate
# [2] = test system: HS 578T breast
# [3] = test system: MDA-MB-435 melanoma
# [4] = test system: OVCAR-4 ovarian
# [5] = test system: SNB-19 CNS
# [6] = test system: HT29 colon
# [7] = test system: SK-MEL-2 melanoma
# [8] = test system: BT-549 breast
# [9] = test system: HOP-92 NSCLC
# [10] = test system: HL-60(TB) leukemia
# [11] = test system: SK-OV-3 ovarian
# [12] = test system: HOP-62 NSCLC
# [13] = test system: A549 NSCLC
# [14] = test system: T-47D breast
# [15] = test system: 786-0 renal
# [16] = test system: HCT-15 colon
# [17] = test system: A498 renal
# [18] = test system: COLO 205 colon
# [19] = test system: MCF7 breast
# [20] = test system: NCI-H322M lung
# [21] = test system: ACHN renal
# [22] = test system: M14 melanoma
# [23] = test system: U251 glioblastoma
# [24] = test system: SK-MEL-28 melanoma
# [25] = test system: MDA-MB-231 breast
# [26] = test system: RXF 393 renal
# [27] = test system: SF-539 CNS
# [28] = test system: K-562 leukemia
# [29] = test system: NCI-H522 lung
# [30] = test system: SF-268 CNS
# [31] = test system: NCI-H226 lung
# [32] = test system: HCT-116 colon
# [33] = test system: UACC-62 melanoma
# [34] = test system: SNB-75 CNS
# [35] = test system: MDA-MB-468 breast
# [36] = test system: OVCAR-8 ovarian
# [37] = test system: KM12 colon
# [38] = test system: SN12C renal
# [39] = test system: NCI-H23 lung
# [40] = test system: SK-MEL-5 melanoma
# [41] = test system: OVCAR-5 ovarian
# [42] = test system: SF-295 CNS
# [43] = test system: OVCAR-3 ovarian
# [44] = test system: MOLT-4 leukemia
# [45] = test system: MALME-3M melanoma
# [46] = test system: IGROV1 ovarian
# [47] = test system: UO-31 renal
# [48] = test system: NCI-H460 NSCLC
# [49] = test system: CAKI-1 renal
# [50] = test system: UACC-257 melanoma
# [51] = test system: TK-10 renal
# [52] = test system: DU-145 prostate
# [53] = test system: SR leukemia
# [54] = test system: EKVX NSCLC
# [55] = test system: SW-620 colon
# [56] = test system: RPMI-8226 leukemia
# [57] = test system: CCRF-CEM leukemia
# [58] = test system: HCC-2998 colon
smiles,measurement,setting,value
CN[C@@H](C)C(=O)N[C@H](C(=O)N1CCC[C@H]1C(=O)Nc1sc(-c2ncco2)nc1-c1ccccc1)C1CCCCC1,GI50,[1],6.22 µM
same,TGI,[1],19.8 µM
same,GI50,[2],0.609 µM
same,TGI,[2],15.4 µM
same,GI50,[3],1.6 µM
same,TGI,[3],13.5 µM
same,GI50,[4],< 0.01 µM
same,GI50,[5],18.6 µM
same,TGI,[5],61.4 µM
same,GI50,[6],5.63 µM
same,TGI,[6],18.1 µM
same,GI50,[7],< 0.01 µM
same,TGI,[7],1.04 µM
same,GI50,[8],0.234 µM
same,TGI,[8],2.32 µM
same,GI50,[9],9.99 µM
same,TGI,[9],21.8 µM
same,GI50,[10],0.0148 µM
same,TGI,[10],0.584 µM
same,GI50,[11],< 0.01 µM
same,TGI,[11],0.064 µM
same,GI50,[12],1.08 µM
same,TGI,[12],2.68 µM
same,GI50,[13],11.6 µM
same,TGI,[13],> 100 µM
same,GI50,[14],16.7 µM
same,TGI,[14],30.5 µM
same,GI50,[15],6.69 µM
same,TGI,[15],19.9 µM
same,GI50,[16],8.22 µM
same,TGI,[16],21.4 µM
same,GI50,[17],5.13 µM
same,TGI,[17],17.9 µM
same,GI50,[18],2.05 µM
same,TGI,[18],16 µM
same,GI50,[19],0.16 µM
same,TGI,[19],1.18 µM
same,GI50,[20],13.5 µM
same,TGI,[20],39.6 µM
same,GI50,[21],4.35 µM
same,TGI,[21],17.2 µM
same,GI50,[22],8.12 µM
same,TGI,[22],20.8 µM
same,GI50,[23],5.48 µM
same,TGI,[23],19.3 µM
same,GI50,[24],2.64 µM
same,TGI,[24],16.7 µM
same,GI50,[25],0.14 µM
same,TGI,[25],0.909 µM
same,GI50,[26],< 0.01 µM
same,TGI,[26],0.0402 µM
same,GI50,[27],3.44 µM
same,TGI,[27],17.3 µM
same,GI50,[28],2.18 µM
same,TGI,[28],16.6 µM
same,GI50,[29],0.0966 µM
same,TGI,[29],1.08 µM
same,GI50,[30],10.4 µM
same,TGI,[30],22.3 µM
same,GI50,[31],5.52 µM
same,TGI,[31],27.5 µM
same,GI50,[32],0.43 µM
same,TGI,[32],14.3 µM
same,GI50,[33],0.781 µM
same,TGI,[33],10.9 µM
same,GI50,[34],2.52 µM
same,TGI,[34],11.1 µM
same,GI50,[35],0.476 µM
same,TGI,[35],5.23 µM
same,GI50,[36],1.02 µM
same,TGI,[36],2.87 µM
same,GI50,[37],1.21 µM
same,TGI,[37],10.5 µM
same,GI50,[38],11 µM
same,TGI,[38],23.6 µM
same,GI50,[39],0.159 µM
same,TGI,[39],1.28 µM
same,GI50,[40],0.114 µM
same,TGI,[40],1.38 µM
same,GI50,[41],10.7 µM
same,TGI,[41],34.2 µM
same,GI50,[42],3.72 µM
same,TGI,[42],14.7 µM
same,GI50,[43],1.36 µM
same,TGI,[43],15.5 µM
same,GI50,[44],4.34 µM
same,TGI,[44],14.9 µM
same,GI50,[45],0.0256 µM
same,TGI,[45],0.74 µM
same,GI50,[46],10.5 µM
same,TGI,[46],24.5 µM
same,GI50,[47],15.9 µM
same,TGI,[47],29.6 µM
same,GI50,[48],7.4 µM
same,TGI,[48],21.3 µM
same,GI50,[49],11.2 µM
same,TGI,[49],23.3 µM
same,GI50,[50],2.27 µM
same,TGI,[50],13.3 µM
same,GI50,[51],11.3 µM
same,TGI,[51],24.4 µM
same,GI50,[52],1.03 µM
same,TGI,[52],10.5 µM
same,GI50,[53],0.182 µM
same,TGI,[53],0.592 µM
same,GI50,[54],10.7 µM
same,TGI,[54],32.2 µM
same,GI50,[55],3.66 µM
same,TGI,[55],17.9 µM
Nc1nc(OCc2ccccc2)c2[nH]cnc2n1,GI50,[1],55.2 µM
same,GI50,[2],16.6 µM
same,TGI,[2],43.7 µM
same,GI50,[3],52.4 µM
same,GI50,[4],64.4 µM
same,GI50,[6],53.3 µM
same,GI50,[7],37.2 µM
same,TGI,[7],65.8 µM
same,GI50,[56],18.5 µM
same,TGI,[56],37.8 µM
same,GI50,[8],26.9 µM
same,TGI,[8],78.5 µM
same,GI50,[9],36.8 µM
same,GI50,[10],30.2 µM
same,TGI,[10],78.3 µM
same,GI50,[11],23.2 µM
same,TGI,[11],50.1 µM
same,GI50,[12],36.7 µM
same,GI50,[13],64.5 µM
same,GI50,[14],34.5 µM
same,GI50,[15],35.9 µM
same,GI50,[16],28.4 µM
same,GI50,[17],19.6 µM
same,TGI,[17],91.9 µM
same,GI50,[18],65.7 µM
same,GI50,[19],56.2 µM
same,GI50,[20],57.5 µM
same,GI50,[21],46.1 µM
same,GI50,[57],28.4 µM
same,TGI,[57],88.9 µM
same,GI50,[22],30.4 µM
same,TGI,[22],95.8 µM
same,GI50,[23],38.3 µM
same,GI50,[24],66.9 µM
same,GI50,[25],34.6 µM
same,GI50,[26],32.5 µM
same,TGI,[26],88.7 µM
same,GI50,[27],34.7 µM
same,GI50,[29],20.8 µM
same,TGI,[29],60.7 µM
same,GI50,[30],66.3 µM
same,GI50,[31],29.3 µM
same,TGI,[31],80.7 µM
same,GI50,[33],31.4 µM
same,GI50,[58],30.8 µM
same,GI50,[34],19.6 µM
same,TGI,[34],76.5 µM
same,GI50,[35],25 µM
same,TGI,[35],61 µM
same,GI50,[36],66.4 µM
same,GI50,[37],66.1 µM
same,GI50,[39],31.8 µM
same,GI50,[40],27.9 µM
same,GI50,[41],70.4 µM
same,GI50,[43],69.1 µM
same,GI50,[44],28.9 µM
same,GI50,[45],30.9 µM
same,TGI,[45],79.1 µM
same,GI50,[46],25.7 µM
same,TGI,[46],90.5 µM
same,GI50,[48],37.8 µM
same,GI50,[49],20.8 µM
same,TGI,[49],55.9 µM
same,GI50,[50],61.6 µM
same,GI50,[51],15.8 µM
same,TGI,[51],60.7 µM
same,GI50,[52],52.3 µM
same,GI50,[53],30.9 µM
same,TGI,[53],78.4 µM
same,GI50,[54],43.3 µM
